The source of these data is patent publication US20100105610A1, “Methods of Inhibiting Tumor Cell Aggressiveness Using the Microenvironment of Human Embryonic Stem Cells” (CHILDREN'S MEMORIAL HOSPITAL, priority 2006, published 2010).

One data set deals with Nodal. Description: Nodal protein expression, Western blot. In kind it is cell-based, human. As to conditions: after administration of anti-Nodal Morpholino. The method, then:
(§1) Protein lysates were prepared and quantified as previously described in Hess et al., 2001, Cancer Res. 61:3250-3255. Equal amounts of protein were separated by SDS-polyacrylamide gel electrophoresis under reducing conditions, and the resolved proteins were transferred onto Immobilon-P membranes (Millipore Corp., Bedford, Mass.). Membranes were blocked in 1% TBS, 0.1% Tween 20 (TBS-T) and 5% dry milk powder or 3% gelatin (for Nodal Westerns). Blots were incubated with anti-Nodal or anti-Lefty antibodies (Polyclonal rabbit anti-Nodal (H-110) 1:500 Santa Cruz Biotechnology, Santa Cruz, Calif.; Polyclonal goat anti-Lefty 1:500 R&D Systems, Minneapolis, Minn.), washed in TBS-T, and incubated with the appropriate horseradish peroxidase-labeled secondary antibody. Secondary antibodies were detected by enhanced chemiluminescence (Super Signal; Pierce, Rockford, Ill.) and exposure to autoradiography film (Molecular Technologies, St Louis, Mo.). Nodal protein was detected as two major bands at ˜48 and ˜35 kDa representing precursor and pro-Nodal respectively. Nodal often appeared as multiple bands, likely due to degradation of protein modifications. All experiments were done at least three times.
Conditioned matrices were prepared using hESCs, melanocytes, myoepithelial cells, amniotic fluid derived stem cells, or trophoblast cells on growth factor-reduced Matrigel (14 mg/mL; BD Biosciences) as previously described. Postovit et al., 2006, Stem Cells 24: 501-505. In all cases, cells were 80-100% confluent during the conditioning of the matrix. Alternatively, hESC-derived Lefty protein was seeded into Matrigel prior to polymerization. Human melanoma (C8161) or breast carcinoma (MDA-MB-231) cells, 2.5×10^5 cells/6-well dish, were subsequently exposed to this preconditioned matrix for 3 to 4 days.
as §1, with “primary antibody (Table 2),” for “anti-Nodal or anti-Lefty antibodies (Polyclonal rabbit anti-Nodal (H-110) 1:500 Santa Cruz Biotechnology, Santa Cruz, Calif.; Polyclonal goat anti-Lefty 1:500 R&D Systems, Minneapolis, Minn.),”, “TBS-T or TBS-T containing 0.5M NaCl for the Nodal Westerns,” for “TBS-T,”, “Nodal often appeared as multiple bands, likely due to degradation of protein modifications. All experiments were done at least three times.” left out
(Immunoblotting shows a protein as a band on a membrane.)

Data set [1] concerns MDA-MB-231 breast carcinoma cells. Description: In vivo tumor cell proliferation-to-apoptosis ratio (Ki67 / TUNEL), MDA-MB-231 tumors. The settings on record: MDA-MB-231 cells treated prior to injection into mouse. The source says:
(A) In vivo tumor formation in a mouse injected with MDA-MB-231 cells pre-exposed for 3 days to either a control matrix (Matrigel) or a matrix conditioned by hESCs (H9 CMTX) (n=10) (B) C81-61 cells, transfected with either an empty vector or a Nodal expression construct (n=5), and (C) MDA-MB-231 cells treated with either MO^Control or MO^Nodal (n=10). […] (D) The ratio of tumor cell proliferation to apoptosis for C8161 and MDA-MB-231 derived tumors, determined by immunohistochemical staining for Ki67 and terminal deoxynucleotidyl transferase biotin-dUTP nick-end labeling (TUNEL). Prior to injection into a mouse, C8161 and MDA-MB-231 cells were cultured for 3 days on control or hESC conditioned (H9 CMTX) matrices, or treated with MO^Nodal to knock down Nodal expression. […] (E) Immunohistochemical analysis of Ki67 expression (red/brown) and TUNEL staining in orthotopic melanoma (C8161) and breast carcinoma (MDA-MB-231) tumors. […] Proliferation is indicated by Ki67 staining and apoptotic nuclei were detected with confocal microscopy as red staining localized to the nuclei of apoptotic C8161 or MDA-MB-231 cells. […]
In order to establish a mechanism by which exposure to the hESC microenvironment abrogates tumorigenicity, the effects of this treatment on the in vivo tumor cell proliferation-to-apoptosis ratio were analyzed. […]

Turning to “MO^Nodal: antisense Morpholino to Nodal, 5′-AAGCAGCACCTCCAGCCCTTATATC-3′ (SEQ ID NO: 20) (all phosphorodiamidate morpholino (PMO); further chemistry not fully specified)”, the Nodal expression result in the data set with Nodal is reported as “down-regulation”. In addition, the “ratio of proliferation to apoptosis” value in data set [1] is reported as “decreased”.
